Assay results: patent US5476944A, “Derivatives of cyclic phenolic thioethers” (G. D. Searle & Co., priority 1994, dated 1995)

Tests used:
[1] = target: T1, COX-I (Homo sapiens, UniProt P23219); assay: Human Enzyme Assay, recombinant COX-I (PGE2 ELISA); type: biochemical
T1 construct: made in house; host or cells: SF9 insect cells, recombinant baculovirus (pVL1393); coding fragment from Cayman Chemical
Method: (§1) The compounds of the invention are evaluated with respect to COX-I and COX-II activity in vitro using an enzyme based assay according to the following assay procedure.
(§2) (a) Preparation of Recombinant COX Baculoviruses
(§3) A 2.0 kb fragment containing the coding region for either human or murine COX-I (Caymen Chemical, Ann Arbor, Mich.), or human or murine COX-II (Caymen Chemical, Ann Arbor, Mich.), was cloned into a BamH1 site of the baculovirus transfer vector pVL1393 (Invitrogen, Palo Alto, Calif.) to generate a baculovirus transfer vector. Recombinant baculoviruses were isolated by transfecting 4 μg of baculovirus transfer vector DNA into SF9 cells (2×10e8) (Invitrogen, Palo Alto, Calif.) along with 200 ng of linearized bacium by the phosphate method. See M. D. Summers et al., "A Manual of Methods for Baculovirus Vectors and Insect Cell Culture Procedure," TEXAS AGRICULTURE EXPERIMENTAL STATION BULLETIN, No. 1555 (1987), which is incorporated herein by reference. Recombinant viruses were purified by three rounds of plaque purification, and high titer (10e7-10e8 pfu/ml) stocks of virus were prepared. For large scale production, SF9 insect cells (Invitrogen, Palo Alto, Calif.) were infected in 10 liter fermentors (0.5×10^6 /ml) with the recombinant baculovirus stock, such that the multiplicity of infection was 0.1. After 72 hours, the cells were centrifuged and the cell pellet was homogenized in Tris/Sucrose (50 mM: 25%, pH 8.0) containing 1% CHAPS. The homogenate was centrifuged at 10,000×G for 30 minutes, and the resultant supernatant was stored at -80° C. before being assayed for COX activity.
(§4) b. Assay for COX-I and COX-II activity:
(§5) COX activity was assayed as PGE2 formed/μg protein/time using an ELISA (Caymen Chemical, Ann Arbor, Mich.) to detect the prostaglandin E2 released. CHAPS-solubilized insect cell membranes containing the appropriate COX enzyme were incubated in a potassium phosphate buffer (50 mM, pH 8.0) containing phenol (0.5 mM), and heme (1 μM) with the addition of arachidonic acid (10 μM). Compounds of the present invention were pre-incubated with the enzyme for 10-20 minutes prior to the addition of the COX-I and COX-II enzyme substrate arachidonic acid (10 μM). Any reaction between the arachidonic acid and the enzyme was stopped after ten minutes at 37° C./room temperature by transferring 40 μl of reaction mix into […] ELISA buffer and 25 μM indomethacin. The PGE2 formed was measured by standard ELISA technology (Cayman Chemical, Ann Arbor, Mich.).
(§6) The results for this assay, as well as for the next assay (COX-II Cell Fibroblast Assay) are expressed in terms of COX-I or II activity as an IC50 value (50% inhibitory concentration), as defined as the amount of prostaglandin E2 (PGE2) formed per protein per time in response to the enzyme substrate arachidonic acid.

[2] = target: T2, COX-II (Homo sapiens, UniProt P35354); assay: Human Enzyme Assay, recombinant COX-II (PGE2 ELISA); type: biochemical
T2 construct: made in house; host or cells: SF9 insect cells, recombinant baculovirus (pVL1393); coding fragment from Cayman Chemical
T2 sequence (P35354 18-604): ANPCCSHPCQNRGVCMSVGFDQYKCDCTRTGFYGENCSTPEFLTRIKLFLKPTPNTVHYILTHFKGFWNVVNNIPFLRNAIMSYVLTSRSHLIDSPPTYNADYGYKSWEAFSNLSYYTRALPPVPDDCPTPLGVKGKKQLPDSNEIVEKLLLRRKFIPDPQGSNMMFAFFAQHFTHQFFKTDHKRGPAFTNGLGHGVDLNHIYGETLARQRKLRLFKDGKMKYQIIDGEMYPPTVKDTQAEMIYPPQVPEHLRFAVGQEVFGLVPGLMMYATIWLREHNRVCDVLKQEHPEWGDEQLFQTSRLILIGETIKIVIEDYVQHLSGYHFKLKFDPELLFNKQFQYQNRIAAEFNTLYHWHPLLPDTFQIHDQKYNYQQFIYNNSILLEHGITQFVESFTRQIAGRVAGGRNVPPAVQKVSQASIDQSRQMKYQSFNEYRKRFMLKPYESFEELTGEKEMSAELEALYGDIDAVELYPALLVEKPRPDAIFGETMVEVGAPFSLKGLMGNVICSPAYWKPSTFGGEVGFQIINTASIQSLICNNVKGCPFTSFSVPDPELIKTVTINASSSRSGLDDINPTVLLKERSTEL
Method: as §1, §2, §3, §4, §5, §6

T1 sequence (P23219 24-599): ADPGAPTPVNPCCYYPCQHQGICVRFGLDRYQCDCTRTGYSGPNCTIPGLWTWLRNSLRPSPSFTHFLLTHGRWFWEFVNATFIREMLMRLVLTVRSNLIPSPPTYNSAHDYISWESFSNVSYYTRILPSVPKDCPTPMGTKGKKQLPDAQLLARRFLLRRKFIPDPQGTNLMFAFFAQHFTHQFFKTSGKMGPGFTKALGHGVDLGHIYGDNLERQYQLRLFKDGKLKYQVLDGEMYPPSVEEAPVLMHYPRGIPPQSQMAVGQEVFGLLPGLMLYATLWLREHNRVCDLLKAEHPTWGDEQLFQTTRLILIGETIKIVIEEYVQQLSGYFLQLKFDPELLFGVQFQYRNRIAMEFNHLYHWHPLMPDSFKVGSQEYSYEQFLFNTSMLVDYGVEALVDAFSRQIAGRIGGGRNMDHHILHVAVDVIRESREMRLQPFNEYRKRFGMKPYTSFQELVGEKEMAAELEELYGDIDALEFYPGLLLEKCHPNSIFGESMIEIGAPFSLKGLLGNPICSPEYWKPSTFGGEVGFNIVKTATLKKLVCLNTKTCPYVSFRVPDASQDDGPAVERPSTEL

IC50 [1]: > 100 µM
IC50 [2]: 4.11 µM
Compound: CC(C)(C)c1cc(S[C@H]2CCCC[C@H]2OCC(=O)O)cc(C(C)(C)C)c1 (racemic) [Example 72, (±)cis-2-[[2-[[3,5-bis(1,1-dimethylethyl)phenyl]thio]cyclohexyl]oxy]acetic acid]
